This note sets out measurements from US20080207522A1, “Antimicrobial Peptides” (priority 2004, published 2008).

The subject of experiment [1] is Pseudomonas aeruginosa strain H1001 fliC::luxCDABE. The experiment in a line: Luminescence-based assay for the non-cleaved (bound) peptides on cellulose membranes. The format is cell-based. Particulars: for Luminescence at the given time in minutes: 0 / Luminescence at the given time in minutes: 20 / Luminescence at the given time in minutes: 40 / Luminescence at the given time in minutes: 60 / Luminescence at the given time in minutes: 80 / Luminescence at the given time in minutes: 100 / Luminescence at the given time in minutes: 120 / Luminescence at the given time in minutes: 180 / Luminescence at the given time in minutes: 240: cellulose-bound peptide; for Luminescence at the given time in minutes: 0: 0 min; for Luminescence at the given time in minutes: 20: 20 min; for Luminescence at the given time in minutes: 40: 40 min; for Luminescence at the given time in minutes: 60: 60 min; for Luminescence at the given time in minutes: 80: 80 min; for Luminescence at the given time in minutes: 100: 100 min; for Luminescence at the given time in minutes: 120: 120 min; for Luminescence at the given time in minutes: 180: 180 min; for Luminescence at the given time in minutes: 240: 240 min; for Activity Class bound: uncleaved cellulose-bound peptides. The method, boiled down: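 Peptides remained bound to cellulose spots, which were ethanol-washed and equilibrated in 100 mM Tris pH 7.3. Constitutively lux-expressing P. aeruginosa (OD600 0.35 culture diluted 1:25) added in 10 mM Tris-HCl pH 7.3, 20 mM glucose at 37° C. Luminescence (RLU) followed over 14 time points; peptides binned into six activity classes.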

The test system of experiment [2] is Pseudomonas aeruginosa strain H1001. The experiment in a line: Assay for the cleaved (free, soluble) peptides from cellulose support, luminescence killing assay. Format: cell-based. Also on record: key: 1: Peptides showing stronger killing than Bac2A at a 4 to 8-fold higher dilution; Peptides showing stronger killing compared to that of Bac2A at a 4-fold higher dilution; 3: Peptides similar to Bac2A; 4: Peptides similar to Bac2A at the highest concentration but demonstrating weaker killing at a 2-fold dilution; 5: Peptides giving very weak or no killing at a 2-fold dilution; 6: Peptides with weak killing activity at the highest concentration. Particulars: free (cleaved) peptides, killing relative to Bac2A. The method, boiled down: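 Cellulose-synthesized peptides (amidated C-terminus, two β-alanines) cleaved by ammonia, released from punched spots 30 min at 37 °C, then serially diluted. P. aeruginosa H1001 (constitutive fliC::luxCDABE) overnight culture diluted 1:500 in LB or 100 mM Tris pH 7.3/20 mM glucose. Killing followed as time-dependent luminescence loss at 37 °C.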

For the sequence RARIVRVRVILA [Bac016], in experiment [1], the “Luminescence at the given time in minutes: 0” value (“Luminescence … in minutes: 0” for short) stood at 4172 RLU, the “Luminescence at the given time in minutes: 20” value (shortened to “Luminescence … in minutes: 20”) was determined as 6362 RLU, the “Luminescence at the given time in minutes: 40” value (“Luminescence … in minutes: 40” for short) is on record as 2916 RLU and the “Luminescence at the given time in minutes: 60” value (“Luminescence … 60” below) came out at 678 RLU. Also, in experiment [1], the “Luminescence at the given time in minutes: 80” value (shortened to “Luminescence … in minutes: 80”) stood at 142 RLU, the “Luminescence at the given time in minutes: 100” value (“Luminescence … 100” for short) is given as 80 RLU, the “Luminescence at the given time in minutes: 120” value (“Luminescence … 120” for short) was determined as 60 RLU and the “Luminescence at the given time in minutes: 180” value (“Luminescence … 180” for short) is on record as 68 RLU. Further, in experiment [1], the “Luminescence at the given time in minutes: 240” value (“Luminescence … 240” for short) came to 22 RLU and the “Activity Class bound” value was 3 (Peptides similar to Bac2A resulting in lux values of less than 500 after 240 min.). Moreover, the “Activity Class Soluble” value in experiment [2] is 2.
Take RARRVRVLIAIV [Bac036]: in experiment [1], the “Luminescence … in minutes: 0” value amounted to 5208 RLU, the “Luminescence … in minutes: 20” value turned out to be 7062 RLU, the “Luminescence … in minutes: 40” value worked out at 5114 RLU and the “Luminescence … 60” value is 3233 RLU. In experiment [1], the “Luminescence … in minutes: 80” value is recorded as 1182 RLU, the “Luminescence … 100” value came to 394 RLU, the “Luminescence … 120” value came out at 215 RLU and the “Luminescence … 180” value was found to be 129 RLU. In experiment [1], the “Luminescence … 240” value worked out at 107 RLU and the “Activity Class bound” value is listed as 3 (Peptides similar to Bac2A resulting in lux values of less than 500 after 240 min.). Moreover, the “Activity Class Soluble” value in experiment [2] worked out at 4.
For RIVLRRAAVIRV [Bac039], in experiment [1], the “Luminescence … in minutes: 0” value was found to be 4727 RLU, the “Luminescence … in minutes: 20” value is on record as 7074 RLU, the “Luminescence … in minutes: 40” value amounted to 5814 RLU and the “Luminescence … 60” value is given as 5262 RLU. In experiment [1], the “Luminescence … in minutes: 80” value was found to be 4994 RLU, the “Luminescence … 100” value is given as 4717 RLU, the “Luminescence … 120” value was determined as 4569 RLU and the “Luminescence … 180” value came to 4524 RLU. Moreover, in experiment [1], the “Luminescence … 240” value is recorded as 5392 RLU and the “Activity Class bound” value was 6 (Peptides having residual luminescence (lux) values greater than 3000 after 240 min.). Besides, the “Activity Class Soluble” value in experiment [2] was 5.
With RLRVAIVAIVRR [Bac041], in experiment [1], the “Luminescence … in minutes: 0” value turned out to be 4620 RLU, the “Luminescence … in minutes: 20” value stood at 5674 RLU, the “Luminescence … in minutes: 40” value worked out at 615 RLU and the “Luminescence … 60” value stood at 54 RLU. Further, in experiment [1], the “Luminescence … in minutes: 80” value amounted to 68 RLU, the “Luminescence … 100” value is given as 37 RLU, the “Luminescence … 120” value is 77 RLU and the “Luminescence … 180” value is given as 53 RLU. For the same sequence, in experiment [1], the “Luminescence … 240” value is listed as 37 RLU; the “Activity Class bound” value was 2 (Peptides reducing lux values to between 500 and 1000 after 40 min.). Also, the “Activity Class Soluble” value in experiment [2] was 4.
On to RRIARVIVAVLR [Bac002], for which, in experiment [1], the “Luminescence … in minutes: 0” value came out at 4340 RLU, the “Luminescence … in minutes: 20” value was 6090 RLU, the “Luminescence … in minutes: 40” value was 1631 RLU and the “Luminescence … 60” value is reported as 135 RLU. In experiment [1], the “Luminescence … in minutes: 80” value is given as 58 RLU, the “Luminescence … 100” value is 48 RLU, the “Luminescence … 120” value is 35 RLU and the “Luminescence … 180” value was 59 RLU. In experiment [1], the “Luminescence … 240” value is recorded as 48 RLU and the “Activity Class bound” value was 3 (Peptides similar to Bac2A resulting in lux values of less than 500 after 240 min.). The “Activity Class Soluble” value in experiment [2] was 3.
